These results are taken from article PMC7714071, “Interaction of amyloid beta with humanin and acetylcholinesterase is modulated by ATP” (FEBS Open Bio, 2020).

Series [1] concerns H1299 cells. Put plainly: MTT cell viability, H1299. Format: cell-based, human. To be noted: 48 h, Fig. 7B; for effect of ATP on viability in HN-ID media: HN-immunodepleted media, versus no ATP; for effect on cell viability: control media, three experiments in triplicate. On the procedure: Human NSCLC cell lines, A549 (ATCC CCL‐185) and H1299 (ATCC CRL‐5803), were purchased from the American Type Culture Collection (ATCC, Manassas, VA, USA). Cells were seeded as we reported earlier in 5 mL HyClone Dulbecco's modified Eagle's medium/nutrient mixture F‐12 (DMEM/F12) (GE Healthcare Life Sciences, Pittsburgh, PA, USA), supplemented with 10% Fetalgro bovine growth serum (FBS; RMBIO, Missoula, MT, USA), 50 U·mL^−1 penicillin, and […] streptomycin (Invitrogen, Life Technologies, Carlsbad, CA, USA) in 25‐cm^2 tissue culture flasks, and allowed to grow overnight in an incubator at 37 °C, 95% humidity, and 5% CO2. The cells were counted after trypan blue staining, with a hemocytometer.
The 3‐(4,5‐dimethylthiazol‐2‐yl)‐2,5‐diphenyl‐tetrazolium bromide (MTT) reduction assay (Sigma‐Aldrich), used to measure cell viability, was carried out as we reported earlier. Cells were seeded in 96‐well plates as indicated in 200 μL 10% FBS‐supplemented media per well and maintained overnight at 95% humidity and 5% CO2. After an overnight incubation, the media were replaced with 200 μL serum‐free media, and the cells were further incubated, without or with different treatments, for 24, 48, or 72 h. The final concentration of DMSO in each well never exceeded 0.1%. The cells were then incubated for 4 h with MTT (0.5 mg·mL^−1) in the dark. The media were carefully removed, and DMSO (100 μL) was added to dissolve the formazan crystals. The absorbance was measured at 570 nm in a plate reader. Untreated cells or wells containing only DMSO and media were used as a positive and negative control, respectively. Statistical analysis was conducted using […] PRISM version 8.4.3 for Windows. Significant values were considered at P < 0.05 and more significant values at P < 0.01, compared with the control.
Conditioned media were immunodepleted (ID) according to the methods previously described and our recently published report. Briefly, specific antibodies were bound to ELISA wells overnight (1 : 1000 dilution). The wells were then blocked and washed, then 300 μL of the conditioned medium (0.5 μg·μL^−1) treated as indicated, 72 h postserum starvation, was incubated with the antibodies bound to ELISA wells for 24 h. The ID media were then carefully removed and analyzed for the presence of the target protein or peptide by ELISA. The same amount of protein (3 µL of 600 µg·mL^−1 total protein) of each sample was analyzed in the experiments. Significant depletion (95–100%) was observed upon using each of the antibodies employed in this study.
Since addition of ATP appears to increase binding of HN to Aβ, and conversely, decreases the interaction of Aβ with AChE (Figs 3, 4, 5, 6), we tested the effect of added ATP on A549 and H1299 cell viability (Fig. 7). Exogenously added ATP at either 100 µM or 1 mM had no effect on viability of either A549 (Fig. 7A) or H1299 cells (Fig. 7B). […] To determine the effect of ID of AChE or HN in the absence or presence of added ATP on cell viability, ID media were prepared by first seeding 0.2 × 10^5 cells per well in 96‐well plates in 10% FBS‐supplemented media. The next day, the cells were incubated in serum‐free medium for 72 h, then ID of AChE or HN as described in Materials and methods. For cell viability assays, cells were seeded in 96‐well plates at 0.2 × 10^5 cells per well in 200 µL 10% FBS‐supplemented media followed by incubation in serum‐free medium for 12 h, then treated with the ID media for 48 h. […]

The test system of series [2] is Aβ40. Conditions: HN and AChE compared; cited from earlier work. The source says:
Amino acid residues involved in direct interactions between HN and Aβ40 were identified previously by molecular modeling. The specific epitopes at the binding interface between HN and Aβ40 were identified, by proteolytic epitope excision and extraction in addition to affinity–mass spectrometric data analysis, to be HN (5–15) and Aβ (17–28). […] Inhibiting the 17–28 region of Aβ reduced aggregation of the neurotoxic amyloid fibrils and related cytotoxicity in SH‐SY5Y, a human neuroblastoma cell ... || Humanin has been previously reported to bind amino acid residues 17–28 of Aβ (Fig. 1). AChE is also known to bind Aβ (1–16) and the Aβ (12–28) region (Fig. 1). Since the binding sites of AChE and HN on Aβ are overlapping, we previously investigated whether HN and AChE can simultaneously bind Aβ [79].

Series [3] relates to Aβ42. To be noted: binds directly to Aβ42; cited from earlier work. The source says:
Almost all types of cells produce amyloid beta (Aβ), a peptide well recognized for its role in the development and progression of different stages of Alzheimer's disease (AD). The Aβ peptide is ~ 4 kDa and derived from the sequential processing of the higher molecular weight amyloid precursor protein by two membrane‐bound endoproteases, β‐ and γ‐secretase. Different C‐terminal Aβ heterogeneity results from processing by γ‐secretase, where Aβ40 represents the most abundant isoform (~ 90%) as compared to Aβ42 (~ 10%). Self‐assembled Aβ40/42 peptides into amyloid fib ... || Amino acid residues involved in direct interactions between HN and Aβ40 were identified previously by molecular modeling. The specific epitopes at the binding interface between HN and Aβ40 were identified, by proteolytic epitope excision and extraction in addition to affinity–mass spectrometric data analysis, to be HN (5–15) and Aβ (17–28). […] Inhibiting the 17–28 region of Aβ reduced aggregation of the neurotoxic amyloid fibrils and related cytotoxicity in SH‐SY5Y, a human neuroblastoma cell ... || Acetylcholinesterase (AChE) is an enzyme known for its role in terminating acetylcholine‐mediated neurotransmission at the synaptic cleft. The majority of the cortical AChE in the Alzheimer's brain is mainly associated with the amyloid core of senile plaques. […]

For the compound `Nc1ncnc2c1ncn2[C@@H]1O[C@H](COP(=O)(O)OP(=O)(O)OP(=O)(O)O)[C@@H](O)[C@H]1O` [ATP, Adenosine triphosphate], the “effect of ATP on viability in AChE-depleted media” value in series [1] (AChE-immunodepleted media) was “did not affect cell viability”. Moreover, in series [1] (ATP 100 µM), the “effect of ATP on viability in HN-ID media” value is “No change in cell viability” and the “effect on cell viability” value was “no effect”. Besides, in series [1] (ATP 1 mM), the “effect of ATP on viability in HN-ID media” value was “No change in cell viability” and the “effect on cell viability” value was “no effect”.
On to Humanin [HN], for which, in series [2], the “affinity for Aβ40” value is reported as “comparable affinities”. In series [3], the antioligomeric activity result is recorded as “exhibit antioligomeric activity”.
